Where a name gives a salt, the structure may show the parent alone.
| melting point | Compound |
| --- | --- |
| 250 °C (dec.) | CCc1nnsc1C(=O)O (as salt: sodium) [compound 176, sodium 4-ethyl-1,2,3-thiadiazole-5-carboxylate] |
| 105 to 107 °C | CCc1nnsc1C(=O)O [compound 178, t-butylammonium 4-ethyl-1,2,3-thiadiazole-5-carboxylate] |

— patent US6521649B1 (priority 1995, dated 2003)
